Assays:
[1] = tested on: collagen I; assay: Further testing: fibrogenic activity measured by production of collagen I; type: cell-based; conditions: 1 μM, one dose at start of culturing, 7 days (FIG. 11)
From the text: RNA was also isolated on days 4 and 7.

[2] = tested on: hepatic stellate cells; assay: Induction of fibrogenic genes in cultured hepatic stellate cells; type: cell-based, rat; conditions: freshly isolated quiescent hepatic stellate cells in culture
From the text: EZH2 is therefore a negative regulator of PPARγ transcription in myofibroblasts, but also appears to play a wider regulatory role in promoting MTD and wound-healing. Furthermore, the stimulation of EZH2 expression and subsequent methylation of H3K27 in the downstream exons of the PPARγ gene is identified as a second mechanism through which MeCP2 achieves transcriptional silencing of PPARγ. The combined effect of H3K9 methylation and HP1α binding at the 5′ end of the PPARγ gene with H3K27 methylation and PRC1 recruitment in the downstream exons would be to prevent both transcriptional initiation and elongation which reflects the biological importance of suppressing PPARγ expression for MTD and wound-healing. […]
Total RNA was purified from isolated cells using the Total RNA purification kit (Qiagen, UK) following the manufacturer's instructions and was used to generate first strand cDNA utilising a random hexamer primer [p(dN)6] and MMLV reverse transcriptase. […] After each run, a dissociation curve was performed to ensure that no primer dimers contaminated the quantification and that the product had the expected melting temperature. All PCR reactions were normalized to the internal control and relative level of transcriptional difference calculated using the following equation: [1/(2A)]×100.

[3] = tested on: α1 (I) collagen and TIMP-1 transcripts; assay: Acute CCl4 liver injury, liver transcripts by qPCR; type: in vivo, C57Bl6 mice; conditions: mice, 15 mg/m^2 IP 2 hours prior to single dose of CCl4, sacrificed 24 h after
Method: FIG. 5—A.) and B.) 5×10^6 rat MFBs were electroporated as outlined “Materials and methods”. 2 μgs control siRNA or siRNA designed to target rat EZH2 was used per transfection. Total RNA was prepared from control or rat EZH2 siRNA transfected cells 48 h after the electroporation. First strand cDNA was synthesised which was then utilised as a template in qPCR using primers for specific amplification of EZH2 (in A.) and PPARγ (in B.). C.) Fully differentiated MFBs were treated with 1 μM 3-deazaneplanocin A or vehicle for 72 h at which time total RNA was prepared from control or drug treated cells. First strand cDNA was synthesised which was then utilised as a template in qPCR using primers for specific amplification of PPARγ. D.) Freshly isolated rat HSC were plated out onto plastic in two separate dishes and one dish treated with 1 μM 3-deazaneplanocin A at 12 h following the HSC isolation. […] Results are expressed as percent control of 3-deazaneplanocin A and olive oil vehicle injected mice (data not included in the graph).
3 deazaneplanocin A was given to two groups of four C57Bl6 mice (15 mg/m^2 which was calculated to be 0.428 μg of drug per g body weight of a mouse) was given IP 2 hours prior to a single dose of CCl4 (CCl4/olive oil in a 1:1 [vol/vol] ratio at 1 μl per g body weight). […]

[4] = tested on: EZH2; conditions: Tan J et al, 2007; cited from earlier work

| Structure (SMILES) | inhibition of collagen I production at 7 days [1] | induction of fibrogenic gene al (I) collagen [2] | induction of fibrogenic gene tissue inhibitor of metalloproteinase-1 (TIMP-1) [2] | induction of transcripts for TIMP-1 in injured liver [3] | induction of transcripts for α1 (I) collagen in injured liver [3] | effect on cellular EZH2 [4] |
| --- | --- | --- | --- | --- | --- | --- |
| Nc1nc(Cl)cc2c1ncn2C1COC(CO)O1 (stereo not drawn) [Compound 8] | significant inhibition | – | – | – | – | – |
| Nc1nccc2c1ncn2[C@@H]1C=C(CO)[C@@H](O)[C@H]1O [Compound 3, 3-deazaneplanocin A] | – | suppressed the induction | suppressed the induction | suppressed the induction | suppressed the induction | depletes cells of EZH2 |
